Measured values taken from patent US7262185B2, “Benzazepine derivative, process for producing the same, and use” (Takeda Chemical Industries Ltd., priority 2001, dated 2007).

SMILES	melting point
CCCCOCCOc1ccc(-c2ccc3c(c2)C=C(C(=O)Nc2ccc(Sc4cccc5nc(C)cn45)cc2)CCN3CC(C)C)cc1 [Compound 170, 7-[4-(2-butoxyethoxy)phenyl]-1-isobutyl-N-[4-(2-methylimidazo[1,2-a]pyridin-5-ylthio)phenyl]-2,3-dihydro-1H-benzazepine-4-carboxamide]	164 to 166 °C
CCCCOCCOc1ccc(-c2ccc3c(c2)C=C(C(=O)Nc2ccc([S+]([O-])Cc4ncn(C)n4)cc2)CCN3CC(C)C)cc1 (stereo not shown) [Compound 126, 7-[4-(2-butoxyethoxy)phenyl]-1-isobutyl-N-[4-(1-methyl-1H-1,2,4-triazol-3-ylmethylsulfinyl)phenyl]-2,3-dihydro-1H-benzazepine-4-carboxamide]	112 to 114 °C
CCCCOCCOc1ccc(-c2ccc3c(c2)C=C(C(=O)Nc2ccc([S+]([O-])CCc4nncn4CCC)cc2)CCN3CCC)cc1 (stereo not shown) [Compound 52, 7-[4-(2-butoxyethoxy)phenyl]-1-propyl-N-[4-[2-(4-propyl-4H-1,2,4-triazol-3-yl)ethylsulfinyl]phenyl]-2,3-dihydro-1H-1-benzazepine-4-carboxamide]	93 to 101 °C
CCCCOCCOc1ccc(-c2ccc3c(c2)C=C(C(=O)Nc2ccc([S+]([O-])Cc4nnc(SC)n4CCC)cc2)CCN3CC(C)C)cc1 (stereo not shown) [Compound 149, 7-[4-(2-butoxyethoxy)phenyl]-1-isobutyl-N-[4-(5-methylthio-4-propyl-4H-1,2,4-triazol-3-ylmethylsulfinyl)phenyl]-2,3-dihydro-1H-benzazepine-4-carboxamide]	150 to 152 °C
CCCCOCCOc1ccc(-c2ccc3c(c2)C=C(C(=O)Nc2ccc(/C(Cc4nccn4CCC)=N/O)cc2)CCN3CC(C)C)cc1 [Compound 450, 7-[4-(2-butoxyethoxy)phenyl]-N-[4-((1E)-N-hydroxy-2-(1-propylimidazol-2-yl)ethaneimidoyl)phenyl]-1-isobutyl-2,3-dihydro-1H-1-benzazepine-4-carboxamide]	153.5 to 154.5 °C
CCCCOCCOc1ccc(-c2ccc3c(c2)C=C(C(=O)Nc2ccc([S+]([O-])Cc4ncnn4C)cc2)CCN3CC(C)C)cc1 (stereo not shown) [Compound 124, 7-[4-(2-butoxyethoxy)phenyl]-N-[4-(1-methyl-1H-1,2,4-triazol-5-ylmethylsulfinyl)phenyl]-1-isobutyl-2,3-dihydro-1H-1-benzazepine-4-carboxamide]	135 to 138 °C
CCCCOCCOc1ccc(-c2ccc3c(c2)C=C(C(=O)Nc2ccc([S+]([O-])Cc4c(C)nc5ccccn45)cc2)CCN3CCC)cc1 (stereo not shown) [Compound 165, 7-[4-(2-butoxyethoxy)phenyl]-N-[4-(2-methylimidazo[1,2-a]pyridin-3-ylmethylsulfinyl)phenyl]-1-propyl-2,3-dihydro-1H-benzazepine-4-carboxamide]	134 to 137 °C
CCCCOCCOc1ccc(-c2ccc3c(c2)C=C(C(=O)Nc2ccc(C(O)c4c(C)ccc[n+]4[O-])cc2)CCN3C(=O)C(F)(F)F)cc1 (stereo not shown) [Compound 100, 7-[4-(2-butoxyethoxy)phenyl]-N-[4-[hydroxy(3-methyl-1-oxidopyridin-2-yl)methyl]phenyl]-1-trifluoroacetyl-2,3-dihydro-1H-1-benzazepine-4-carboxamide]	109 to 112 °C
CCCCOCCOc1ccc(-c2ccc3c(c2)C=C(C(=O)Nc2ccc(C/C(=N/O)c4nccn4CCC)cc2)CCN3CC(C)C)cc1 [Compound 453, 7-[4-(2-butoxyethoxy)phenyl]-N-[4-((2Z)-2-(hydroxyimino)-2-(1-propylimidazol-2-yl)ethyl)phenyl]-1-isobutyl-2,3-dihydro-1H-1-benzazepine-4-carboxamide]	187.5 to 189.5 °C
CCCCOCCOc1ccc(-c2ccc3c(c2)C=C(C(=O)Nc2ccc(C(O)c4cc(C)cc[n+]4[O-])c(OCC)c2)CCN3CC(C)C)cc1 (stereo not shown) [Compound 12, 7-[4-(2-butoxyethoxy)phenyl]-N-[3-ethoxy-4-[hydroxy(4-methyl-1-oxidopyridin-2-yl)methyl]phenyl]-1-isobutyl-2,3-dihydro-1H-1-benzazepine-4-carboxamide]	108 to 110 °C
CCCCOCCOc1ccc(-c2ccc3c(c2)C=C(C(=O)Nc2ccc([S+]([O-])Cc4nnc(C)c(C)n4)cc2)CCN3CC(C)C)cc1 (stereo not shown) [Compound 37, 7-[4-(2-butoxyethoxy)phenyl]-N-[4-[(5,6-dimethyl-1,2,4-triazin-3-yl)methylsulfinyl]phenyl]-1-isobutyl-2,3-dihydro-1H-1-benzazepine-4-carboxamide]	178 to 183 °C (dec.)
CCCCOCCOc1ccc(-c2ccc3c(c2)C=C(C(=O)Nc2ccc([C@H](O)c4cccc[n+]4[O-])cc2)CCN3S(C)(=O)=O)cc1 [Compound 94, 7-[4-(2-butoxyethoxy)phenyl]-N-[4-[(S)-hydroxy(1-oxidopyridin-2-yl)methyl]phenyl]-1-methanesulfonyl-2,3-dihydro-1H-1-benzazepine-4-carboxamide]	118 to 120 °C
CCCCOCCOc1ccc(-c2ccc3c(c2)C=C(C(=O)Nc2ccc4c(c2)nc([S+]([O-])Cc2cncn2CCC)n4C)CCN3CC(C)C)cc1 (stereo not shown) [Compound 445, 7-[4-(2-butoxyethoxy)phenyl]-1-isobutyl-N-[1-methyl-2-(((1-propylimidazol-5-yl)methyl)sulfinyl)benzimidazol-5-yl]-2,3-dihydro-1H-1-benzazepine-4-carboxamide]	149.5 to 151 °C
CCCCOCCOc1ccc(-c2ccc3c(c2)C=C(C(=O)Nc2ccc(/C(Cc4nccn4CCC)=N/OC)cc2)CCN3CC(C)C)cc1 [Compound 448, 7-[4-(2-butoxyethoxy)phenyl]-1-isobutyl-N-[4-((1E)-N-methoxy-2-(1-propylimidazol-2-yl)ethanimidoyl)phenyl]-2,3-dihydro-1H-1-benzazepine-4-carboxamide]	159 to 161 °C
CCCCOCCOc1ccc(-c2ccc3c(c2)C=C(C(=O)Nc2ccc(C(O)c4cc(C)cc[n+]4[O-])cc2)CCN3)cc1 (stereo not shown) [Compound 1, 7-[4-(2-butoxyethoxy)phenyl]-N-[4-[hydroxy(4-methyl-1-oxidopyridin-2-yl)methyl]phenyl]-2,3-dihydro-1H-1-benzazepine-4-carboxamide]	198 to 201 °C (dec.)
CCCCOCCOc1ccc(-c2ccc3c(c2)C=C(C(=O)Nc2ccc([S+]([O-])Cc4nccn4CCCC(=O)OCC)cc2)CCN3CC(C)C)cc1 (stereo not shown) [Compound 414, ethyl 4-[2-[[[4-[[[7-[4-(2-butoxyethoxy)phenyl]-1-isobutyl-2,3-dihydro-1H-1-benzazepine-4-yl]carbonyl]amino]phenyl]sulfinyl]methyl]-1H-imidazol-1-yl]butanoate]	134 to 136 °C
CCCCOCCOc1ccc(-c2ccc3c(c2)C=C(C(=O)Nc2ccc(C(O)c4cccc[n+]4[O-])c(OCC(F)(F)F)c2)CCN3CC(C)C)cc1 (stereo not shown) [Compound 23, 7-[4-(2-butoxyethoxy)phenyl]-1-isobutyl-N-[4-[hydroxy(1-oxidopyridin-2-yl)methyl]-3-(2,2,2-trifluoroethoxy)phenyl]-2,3-dihydro-1H-1-benzazepine-4-carboxamide]	118 to 123 °C
CCCCOCCOc1ccc(-c2ccc3c(c2)C=C(C(=O)Nc2ccc([C@@H](O)c4ccccn4)cc2)CCN3C=O)cc1 [Compound 76, 7-[4-(2-butoxyethoxy)phenyl]-1-formyl-N-[4-[(R)-hydroxy(2-pyridyl)methyl]phenyl]-2,3-dihydro-1H-1-benzazepine-4-carboxamide]	110 to 112 °C
CCCCOCCOc1ccc(-c2ccc3c(c2)C=C(C(=O)Nc2ccc([S+]([O-])Cc4nncn4CCC)nc2)CCN3CC(C)C)cc1 (stereo not shown) [Compound 54, 7-[4-(2-butoxyethoxy)phenyl]-1-isobutyl-N-[2-(4-propyl-4H-1,2,4-triazol-3-yl)methylsulfinylpyridin-5-yl]-2,3-dihydro-1H-1-benzazepine-4-carboxamide]	135 to 138 °C
CCCCOCCOc1ccc(-c2ccc3c(c2)C=C(C(=O)Nc2ccc([C@H](O)c4cccc[n+]4[O-])cc2)CCN3CC2CC2)cc1 [Compound 84, 7-[4-(2-butoxyethoxy)phenyl]-1-cyclopropylmethyl-N-[4-[(S)-hydroxy(1-oxidopyridin-2-yl)methyl]phenyl]-2,3-dihydro-1H-1-benzazepine-4-carboxamide]	85 to 88 °C
CCCCOCCOc1ccc(-c2ccc3c(c2)C=C(C(=O)Nc2ccc(SCc4cncn4CC(N)=O)cc2)CCN3CC(C)C)cc1 [Compound 429, N-[4-[[[1-(2-amino-2-oxoethyl)-1H-imidazol-5-yl]methyl]thio]phenyl]-7-[4-(2-butoxyethoxy)phenyl]-1-isobutyl-2,3-dihydro-1H-1-benzazepine-4-carboxamide]	152 to 154 °C
CCCCOCCOc1ccc(-c2ccc3c(c2)C=C(C(=O)Nc2ccc([S+]([O-])c4cccc5nccn45)cc2)CCN3CC(C)C)cc1 (stereo not shown) [Compound 169, 7-[4-(2-butoxyethoxy)phenyl]-1-isobutyl-N-[4-(imidazo[1,2-a]pyridin-5-ylsulfinyl)phenyl]-2,3-dihydro-1H-benzazepine-4-carboxamide]	162 to 164 °C
CCCCOCCOc1ccc(-c2ccc3c(c2)C=C(C(=O)Nc2ccc(C(O)c4cccc(C)[n+]4[O-])cc2)CCN3)cc1 (stereo not shown) [Compound 97, 7-[4-(2-butoxyethoxy)phenyl]-N-[4-[hydroxy(6-methyl-1-oxidopyridin-2-yl)methyl]phenyl]-2,3-dihydro-1H-1-benzazepine-4-carboxamide]	175 to 177 °C
CCCCOCCOc1ccc(-c2ccc3c(c2)C=C(C(=O)Nc2ccc([C@H](O)c4cccc[n+]4[O-])cc2)CCN3Cc2cc(C)ns2)cc1 [Compound 92, 7-[4-(2-butoxyethoxy)phenyl]-1-(3-methyl-isothiazol-5-ylmethyl)-N-[4-[(S)-hydroxy(1-oxidopyridin-2-yl)methyl]phenyl]-2,3-dihydro-1H-1-benzazepine-4-carboxamide]	93 to 96 °C
CCCCOCCOc1ccc(-c2ccc3c(c2)C=C(C(=O)Nc2ccc(C(O)c4cccc[n+]4[O-])c(C)c2)CCN3)cc1 (stereo not shown) [Compound 7, 7-[4-(2-butoxyethoxy)phenyl]-N-[4-[hydroxy(1-oxidopyridin-2-yl)methyl]-3-methylphenyl]-2,3-dihydro-1H-1-benzazepine-4-carboxamide]	179 to 182 °C (dec.)
